From patent US20160333419A1, “GENE SIGNATURES ASSOCIATED WITH SENSITIVITY TO MDM2 INHIBITORS” (DAIICHI SANKYO COMPANY, LIMITED, priority 2014, published 2016)

Key:
Assay in all cases: OncoPanel cytotoxicity assay
Type in all cases: cell-based
[1] = test system: A172; settings: Homo sapiens, A 172, 72 hour incubation
Summary of the method: (§1)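 Cells grown in RPMI 1640 with 10% FBS (or a special medium) at 37° C, 5% CO2 were treated 24 hours after seeding for 72 hours with 10 concentrations (3.16-fold dilutions, 0.1% DMSO final). Nuclei were dye-stained and imaged; IC50 was fit from percent of control relative cell count.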

[2] = test system: A204; settings: Homo sapiens, 72 hour incubation
Summary of the method: as §1

[3] = test system: A375; settings: Homo sapiens, A-375, 72 hour incubation
Summary of the method: as §1

[4] = test system: A427; settings: Homo sapiens, A-427, 72 hour incubation
Summary of the method: as §1

[5] = test system: ACHN; settings: Homo sapiens, 72 hour incubation
Summary of the method: as §1

[6] = test system: C32TG; settings: Homo sapiens, 72 hour incubation
Summary of the method: as §1

[7] = test system: CEM-C1; settings: Homo sapiens, 72 hour incubation
Summary of the method: as §1

[8] = test system: CHP-212; settings: Homo sapiens, 72 hour incubation
Summary of the method: as §1

[9] = test system: CML-T1; settings: Homo sapiens, 72 hour incubation
Summary of the method: as §1

[10] = test system: Caki-2; settings: Homo sapiens, 72 hour incubation
Summary of the method: as §1

[11] = test system: ChaGoK1; settings: Homo sapiens, ChaGo-K-1, 72 hour incubation
Summary of the method: as §1

[12] = test system: DK-MG; settings: Homo sapiens, 72 hour incubation
Summary of the method: as §1

[13] = test system: EB-3; settings: Homo sapiens, 72 hour incubation
Summary of the method: as §1

[14] = test system: EFM-19; settings: Homo sapiens, 72 hour incubation
Summary of the method: as §1

[15] = test system: HCT-8; settings: Homo sapiens, 72 hour incubation
Summary of the method: as §1

[16] = test system: HT; settings: Homo sapiens, 72 hour incubation
Summary of the method: as §1

[17] = test system: HeLa; settings: Homo sapiens, 72 hour incubation
Summary of the method: as §1

[18] = test system: HuCCT1; settings: Homo sapiens, HuCCT-1, 72 hour incubation
Summary of the method: as §1

[19] = test system: JAR; settings: Homo sapiens, 72 hour incubation
Summary of the method: as §1

[20] = test system: KHOS-240S; settings: Homo sapiens, 72 hour incubation
Summary of the method: as §1

[21] = test system: LS-174T; settings: Homo sapiens, LS174T, 72 hour incubation
Summary of the method: as §1

[22] = test system: LS1034; settings: Homo sapiens, LS-1034, 72 hour incubation
Summary of the method: as §1

[23] = test system: MC-IXC; settings: Homo sapiens, 72 hour incubation
Summary of the method: as §1

[24] = test system: MDA-MB-436; settings: Homo sapiens, 72 hour incubation
Summary of the method: as §1

[25] = test system: MHH-PREB-1; settings: Homo sapiens, 72 hour incubation
Summary of the method: as §1

[26] = test system: MV-4-11; settings: Homo sapiens, MV4-11, 72 hour incubation
Summary of the method: as §1

[27] = test system: MeWo; settings: Homo sapiens, 72 hour incubation
Summary of the method: as §1

[28] = test system: PC-3; settings: Homo sapiens, 72 hour incubation
Summary of the method: as §1

[29] = test system: RL95-2; settings: Homo sapiens, 72 hour incubation
Summary of the method: as §1

[30] = test system: SKO-007; settings: Homo sapiens, 72 hour incubation
Summary of the method: as §1

[31] = test system: SNU-5; settings: Homo sapiens, 72 hour incubation
Summary of the method: as §1

[32] = test system: ST486; settings: Homo sapiens, 72 hour incubation
Summary of the method: as §1

[33] = test system: SW1417; settings: Homo sapiens, 72 hour incubation
Summary of the method: as §1

[34] = test system: SW579; settings: Homo sapiens, 72 hour incubation
Summary of the method: as §1

[35] = test system: SW684; settings: Homo sapiens, 72 hour incubation
Summary of the method: as §1

[36] = test system: SW954; settings: Homo sapiens, SW 954, 72 hour incubation
Summary of the method: as §1

[37] = test system: SW982; settings: Homo sapiens, 72 hour incubation
Summary of the method: as §1

[38] = test system: Y79; settings: Homo sapiens, 72 hour incubation
Summary of the method: as §1

[39] = test system: YAPC; settings: Homo sapiens, 72 hour incubation
Summary of the method: as §1

Row | SMILES | IC50 [1] | IC50 [2] | IC50 [3] | IC50 [4] | IC50 [5] | IC50 [6] | IC50 [7] | IC50 [8] | IC50 [9] | IC50 [10] | IC50 [11] | IC50 [12] | IC50 [13] | IC50 [14] | IC50 [15] | IC50 [16] | IC50 [17] | IC50 [18] | IC50 [19] | IC50 [20] | further results
1 | CC[C@@H]1CNC2(CC2)CN1C(=O)[C@@H]1C[C@@H](F)CN1C(=O)C1=C(C(C)C)N2C(=N[C@@](C)(c3ccc(Cl)nc3)[C@H]2c2ccc(Cl)c(F)c2)S1 [Compound A, [(5R,6S)-5-(4-Chloro-3-fluorophenyl)-6-(6-chloropyridin-3-yl)-6-methyl-3-(propan-2-yl)-5,6-dihydroimidazo[2,1-b][1,3]thiazol-2-yl][(2S,4R)-2-{[(6R)-6-ethyl-4,7-diazaspiro[2.5]oct-7-yl]carbonyl}-4-fluoropyrrolidin-1-yl]methanone] | 795 nM | 755 nM | 317 nM | 1650 nM | 1070 nM | 360 nM | 33600 nM | 196 nM | 2380 nM | 472 nM | > 40000 nM | 645 nM | > 40000 nM | > 40000 nM | 506 nM | > 40000 nM | > 40000 nM | > 40000 nM | 549 nM | > 40000 nM | IC50 [21]: 497 nM; IC50 [22]: > 40000 nM; IC50 [23]: 22700 nM; IC50 [24]: > 40000 nM; IC50 [25]: > 40000 nM; IC50 [26]: 372 nM; IC50 [27]: > 40000 nM; IC50 [28]: > 40000 nM; IC50 [29]: 13800 nM; IC50 [30]: > 40000 nM; IC50 [31]: > 40000 nM; IC50 [32]: 24300 nM; IC50 [33]: > 40000 nM; IC50 [34]: > 40000 nM; IC50 [35]: > 40000 nM; IC50 [36]: > 40000 nM; IC50 [37]: 232 nM; IC50 [38]: 1050 nM; IC50 [39]: > 40000 nM
2 | CC1(C)CCC2(CC1)N[C@@H](C(=O)N[C@@H]1CC[C@@H](C(N)=O)OC1)[C@H](c1ccnc(Cl)c1F)[C@]21C(=O)Nc2cc(Cl)ccc21 [Compound B, (3′R,4′S,5′R)—N-[(3R,6S)-6-carbamoyltetrahydro-2H-pyran-3-yl]-6″-chloro-4′-(2-chloro-3-fluoropyridin-4-yl)-4,4-dimethyl-2″-oxo-1″,2″-dihydrodispiro[cyclohexane-1,2′-pyrrolidine-3′,3″-indole]-5′-carboxamide] | 68.9 nM | 29.4 nM | 43.4 nM | 143 nM | 174 nM | 32.9 nM | 9370 nM | 29.4 nM | 59.7 nM | 82.1 nM | > 10000 nM | 55.3 nM | > 10000 nM | > 10000 nM | 51.6 nM | > 10000 nM | > 10000 nM | > 10000 nM | 86.1 nM | > 10000 nM | IC50 [21]: 61.5 nM; IC50 [22]: > 10000 nM; IC50 [23]: 8620 nM; IC50 [24]: > 10000 nM; IC50 [25]: 8300 nM; IC50 [26]: 25.4 nM; IC50 [27]: > 10000 nM; IC50 [28]: > 10000 nM; IC50 [29]: 3720 nM; IC50 [30]: 8640 nM; IC50 [31]: > 10000 nM; IC50 [32]: 6440 nM; IC50 [33]: > 10000 nM; IC50 [34]: 9610 nM; IC50 [35]: > 10000 nM; IC50 [36]: 8330 nM; IC50 [37]: 20.9 nM; IC50 [38]: 159 nM; IC50 [39]: > 10000 nM
